Data set [1] relates to dually perfused human placental lobule.
The subject of the next data set is placenta. Conditions: cited from earlier work.

As for `Cc1cc(=O)n(-c2ccccc2)n1C` [Antipyrine, antipyrine], in data set [1] (HSA, AAG, or their combination), the “effect of HSA, AAG or their combination in the perfusion medium on transfer of AP across the placental lobule” value was “not affected”. Besides, the “Antipyrine Fetal/Maternal concentration ratio” value in data set [1] (human, 20 µg/mL) came out at 0.84 ± 0.11.
Consider `COc1ccc(Cl)cc1C(=O)NCCc1ccc(S(=O)(=O)NC(=O)NC2CCCCC2)cc1` [glyburide], for which the “fetal/maternal concentration ratio in presence of HSA versus absence of the protein” value with placenta is on record as “significantly lower”.

The values are drawn from PMC4435547 (The journal of maternal-fetal & neonatal medicine : the …, 2009).
